How the values were obtained:
[1] = target: Cyclin-dependent kinase 9 (Homo sapiens) (UniProt P50750); details: dose 100.0 nM
Description: Inhibition of CDK9 (unknown origin) using caliper substrate CTD3 at 100 nM by mobility shift assay relative to control

[2] = target: T1, Bromodomain-containing protein 2 (Homo sapiens, UniProt P25440); experiment: Inhibition of BRD2 BD2 (unknown origin) incubated for 2 to 4 hrs under dark condition by FP assay
[3] = target: T1, Bromodomain-containing protein 2; experiment: Inhibition of BRD2 BD1 (unknown origin) incubated for 2 to 4 hrs under dark condition by FP assay
[4] = target: Bromodomain-containing protein 4 (Homo sapiens, UniProt O60885); experiment: Inhibition of BRD4 BD1 (unknown origin)
[5] = test system: HCT-116; experiment: Antiproliferative activity against human HCT-116 cells incubated for 48 hrs by 3H-thymidine uptake assay; assay type: functional, cell-based

Chain of Cyclin-dependent kinase 9 (Homo sapiens) (P50750 whole entry): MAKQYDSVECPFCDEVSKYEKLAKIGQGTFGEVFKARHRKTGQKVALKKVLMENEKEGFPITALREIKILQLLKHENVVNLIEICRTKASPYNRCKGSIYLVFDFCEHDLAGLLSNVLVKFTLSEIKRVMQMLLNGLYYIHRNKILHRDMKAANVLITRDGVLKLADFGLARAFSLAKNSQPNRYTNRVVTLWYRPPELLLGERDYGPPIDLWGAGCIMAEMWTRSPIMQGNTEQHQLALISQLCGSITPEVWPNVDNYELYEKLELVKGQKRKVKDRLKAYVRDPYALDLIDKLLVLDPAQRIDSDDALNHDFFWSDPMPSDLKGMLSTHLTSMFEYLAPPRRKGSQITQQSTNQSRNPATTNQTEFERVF
T1 sequence (P25440 whole entry): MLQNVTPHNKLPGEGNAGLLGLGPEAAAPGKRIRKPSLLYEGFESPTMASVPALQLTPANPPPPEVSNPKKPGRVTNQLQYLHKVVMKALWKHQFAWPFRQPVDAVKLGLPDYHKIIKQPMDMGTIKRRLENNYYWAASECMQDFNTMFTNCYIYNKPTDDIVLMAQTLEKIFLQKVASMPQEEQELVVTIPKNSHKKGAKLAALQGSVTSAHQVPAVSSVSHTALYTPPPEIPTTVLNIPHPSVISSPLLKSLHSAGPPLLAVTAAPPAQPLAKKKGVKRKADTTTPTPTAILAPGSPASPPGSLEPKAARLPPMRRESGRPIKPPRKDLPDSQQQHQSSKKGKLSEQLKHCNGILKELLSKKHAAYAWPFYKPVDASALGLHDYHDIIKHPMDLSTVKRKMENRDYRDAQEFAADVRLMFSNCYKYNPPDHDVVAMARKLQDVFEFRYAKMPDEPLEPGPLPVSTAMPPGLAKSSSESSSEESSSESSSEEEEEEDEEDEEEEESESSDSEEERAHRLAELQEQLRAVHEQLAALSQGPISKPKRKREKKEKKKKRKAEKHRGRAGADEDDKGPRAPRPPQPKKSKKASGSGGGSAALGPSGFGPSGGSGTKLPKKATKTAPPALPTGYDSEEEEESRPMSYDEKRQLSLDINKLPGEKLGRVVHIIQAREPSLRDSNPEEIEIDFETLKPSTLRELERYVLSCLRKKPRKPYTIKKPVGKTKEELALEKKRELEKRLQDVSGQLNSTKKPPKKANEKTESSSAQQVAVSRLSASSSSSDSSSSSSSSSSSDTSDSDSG

SMILES	inhibition [1]	also measured
Cc1nn(C)c(C2CC2)c1-c1ccnc(Nc2ccc3c(c2)N(C(C)C)[C@H](C)C(=O)N3C)n1	3.4%	–
Cc1c(-c2nc(Nc3ccc4c(c3)N(C(C)C)[C@H](C)C(=O)N4C)ncc2F)c(C2CC2)nn1C	15%	IC50 [2]: 48 nM; IC50 [3]: 35 nM
CC(C)N1c2cc(Nc3nccc(-c4c[nH]nc4C4CCCCC4)n3)ccc2N(C)C(=O)[C@H]1C	56%	–
Cc1n[nH]c(C)c1-c1ccnc(Nc2ccc3c(c2)N(C(C)C)[C@H](C)C(=O)N3C)n1	5.8%	–
Cc1cc(-c2ccnc(Nc3ccc4c(c3)N(C(C)C)[C@H](C)C(=O)N4C)n2)n(C)n1	-0.4%	–
CC[C@@H]1C(=O)N(C)c2ccc(Nc3ncc(F)c(-c4c(C5CCCC5)nn(C)c4C)n3)cc2N1C(C)C	10%	–
Cc1nn(C(C)C)cc1-c1ccnc(Nc2ccc3c(c2)N(C(C)C)[C@H](C)C(=O)N3C)n1	2.5%	–
Cc1n[nH]c(C2CC2)c1-c1ccnc(Nc2ccc3c(c2)N(C(C)C)[C@H](C)C(=O)N3C)n1	12%	–
Cc1c(-c2nc(Nc3ccc4c(c3)N(C(C)C)[C@H](C)C(=O)N4C)ncc2F)c(C2CCC2)nn1C	18%	–
Cc1c(-c2nc(Nc3ccc4c(c3)N(C(C)C)[C@H](C)C(=O)N4C)ncc2Cl)c(C2CC2)nn1C	23%	–
Cc1nn(C)cc1-c1ccnc(Nc2ccc3c(c2)N(C(C)C)[C@H](C)C(=O)N3C)n1	3.2%	–
CC(C)N1c2cc(Nc3nccc(-c4c[nH]nc4-c4ccccc4)n3)ccc2N(C)C(=O)[C@H]1C	23%	–
CC(C)N1c2cc(Nc3nccc(Nc4cc(C(C)(C)C)n[nH]4)n3)ccc2N(C)C(=O)[C@H]1C	45%	–
CC(C)N1c2cc(Nc3nccc(-c4ccccc4)n3)ccc2N(C)C(=O)C1C (stereo not drawn)	–	IC50 [4]: 193 nM
CC(C)N1c2cc(Nc3nccc(Nc4cc(-c5ccccc5)nn4C)n3)ccc2N(C)C(=O)[C@H]1C	-1.5%	–
Cc1n[nH]cc1-c1ccnc(Nc2ccc3c(c2)N(C(C)C)[C@H](C)C(=O)N3C)n1	53%	–
CC[C@@H]1C(=O)N(C)c2ccc(Nc3ncc(F)c(-c4c(C5CCC5)nn(C)c4C)n3)cc2N1C(C)C	10%	–
Cc1c(-c2ccnc(Nc3ccc4c(c3)N(C(C)C)[C@H](C)C(=O)N4C)n2)cnn1C	25%	–
CCc1n[nH]c(C2CC2)c1-c1ccnc(Nc2ccc3c(c2)N(C(C)C)[C@H](C)C(=O)N3C)n1	5.9%	–
CCn1cc(-c2ccnc(Nc3ccc4c(c3)N(C(C)C)[C@H](C)C(=O)N4C)n2)c(C)n1	9.4%	–
CC(C)N1c2cc(Nc3nccc(-c4ccn(C)n4)n3)ccc2N(C)C(=O)[C@H]1C	-1.4%	–
Cc1c(-c2ccnc(Nc3ccc4c(c3)N(C3CCC3)[C@H](C)C(=O)N4C)n2)c(C2CC2)nn1C	9.1%	–
CC(C)N1c2cc(Nc3nccc(-c4ccnn4C)n3)ccc2N(C)C(=O)[C@H]1C	-1.3%	–

SMILES	inhibition [1]	also measured
Cc1cc(Nc2ccnc(Nc3ccc4c(c3)N(C(C)C)[C@H](C)C(=O)N4C)n2)n(-c2ccccc2)n1	5.3%	–
Cc1c(-c2ccnc(Nc3ccc4c(n3)N(C(C)C)[C@H](C)C(=O)N4C)n2)c(C2CC2)nn1C	0.8%	–
CC[C@@H]1C(=O)N(C)c2ccc(Nc3ncc(F)c(-c4c(C5CC5)nn(C)c4C)n3)cc2N1C(C)C	19%	–
Cc1nn(-c2ccccc2)cc1-c1ccnc(Nc2ccc3c(c2)N(C(C)C)[C@H](C)C(=O)N3C)n1	0.9%	–
CC(C)N1c2cc(Nc3nccc(-c4ccnn4C(C)C)n3)ccc2N(C)C(=O)[C@H]1C	14%	–
Cc1c(-c2ccnc(Nc3ccc4c(c3)N(C3CCCC3)[C@H](C)C(=O)N4C)n2)c(C2CC2)nn1C	4.6%	–
CC[C@@H]1C(=O)N(C)c2ccc(Nc3nccc(-c4c(C5CC5)nn(C)c4C)n3)cc2N1C(C)C	2.7%	–
CC(C)N1c2cc(Nc3nccc(Nc4cc(C5CC5)nn4C)n3)ccc2N(C)C(=O)[C@H]1C	3.8%	–
Cc1c(-c2ccnc(Nc3cc(F)c4c(c3)N(C(C)C)[C@H](C)C(=O)N4C)n2)c(C2CC2)nn1C	-0.9%	–
Cc1cc(Nc2ccnc(Nc3ccc4c(c3)N(C(C)C)[C@H](C)C(=O)N4C)n2)n(C(C)C)n1	0.5%	–
Cc1cnc(Nc2ccc3c(c2)N(C(C)C)[C@H](C)C(=O)N3C)nc1-c1c(C2CC2)nn(C)c1C	0%	–
Cc1c(-c2ccnc(Nc3ccc4c(c3)N(C(C)C)[C@H](C)C(=O)N4C)n2)c(C2CC2)nn1C	6.5%	–
Cc1cc(Nc2ccnc(Nc3ccc4c(c3)N(C(C)C)[C@H](C)C(=O)N4C)n2)n(C)n1	-0.3%	–
CC(C)N1c2cc(Nc3nccc(-c4c[nH]nc4C4CCCC4)n3)ccc2N(C)C(=O)[C@H]1C	62%	–
Cc1cc(Nc2ccnc(Nc3ccc4c(c3)N(C(C)C)[C@H](C)C(=O)N4C)n2)n(C(C)(C)C)n1	-1.5%	–
CC(C)N1c2cc(Nc3nccc(-c4cc[nH]n4)n3)ccc2N(C)C(=O)[C@H]1C	5.4%	–
CC(C)N1c2cc(Nc3nccc(Nc4cc(C(C)(C)C)nn4C)n3)ccc2N(C)C(=O)[C@H]1C	0%	–
CC(C)c1n[nH]cc1-c1ccnc(Nc2ccc3c(c2)N(C(C)C)[C@H](C)C(=O)N3C)n1	69%	–
CCn1nccc1-c1ccnc(Nc2ccc3c(c2)N(C(C)C)[C@H](C)C(=O)N3C)n1	4.7%	–
Cc1c(-c2nc(Nc3ccc4c(c3)N(C(C)C)[C@H](C)C(=O)N4C)ncc2F)c(C2CCCC2)nn1C	8.2%	–
Cc1n[nH]c(C2CCC2)c1-c1ccnc(Nc2ccc3c(c2)N(C(C)C)[C@H](C)C(=O)N3C)n1	5.9%	–
Cc1sc2c(c1C)C(c1ccc(Cl)cc1)=N[C@@H](CC(=O)OC(C)(C)C)c1nnc(C)n1-2	–	IC50 [5]: 6.15 µM
CC(C)N1c2cc(Nc3nccc(-c4cn[nH]c4)n3)ccc2N(C)C(=O)[C@H]1C	73%	–

— ChEMBL document CHEMBL6096727, “Structure-Based Rational Design and Evaluation of BET-Aurora Kinase Dual-Inhibitors for Treatment of Cancers” (J Med Chem, 2025)
